# Test results as given in paper PMC9046208, “Foldamers reveal and validate therapeutic targets associated with toxic α-synuclein self-assembly” (Nature Communications, 2022).
# Experiments:
# αS = biological target: T1, αS (Homo sapiens, UniProt P37840); test: FP displacement titration of αS-SK-129F complex with SK-129; assay type: binding; conditions: displacement of SK-129F from αS-SK-129F complex by SK-129, n = 3
# T1 construct: made in house; host or cells: Escherichia coli BL21(DE3), periplasm
# Experimental: All Fluorescence Polarization (FP) experiments were conducted on a Varian Cary Eclipse fluorometer (Agilent, Santa Clara, CA) equipped with a polarizer. The stock solutions of αS, 1 mM or 100 μM in 1x PBS buffer, were serially added into a solution of 10 μM SK-129F (300 μL in 1x PBS buffer) while stirring in a quartz cuvette (Fireflysci, Staten Island, NY). All FP measurements were conducted in triplicates in 20 mM Tris, 100 mM NaCl, pH 7.2 at 20 °C. The excitation and emissions wavelengths were set at 490 nm and 520 nm, respectively. Each titration was equilibrated for five min before measurements were taken for the next addition of αS solution. The addition of αS solution was continuous until no more change in the FP signal was observed. Similar conditions were used for the titration of various αS mutants and Aβ42 peptide against SK-129F. […] The polarization of each point was calculated using Eq. 1:1 FP=I∥−I⊥/I∥+I⊥ Where I∥ is fluorescence intensity parallel to the excitation plane and I⊥ is fluorescence intensity perpendicular to the excitation plane. […]
# affinity of SK-129 against αS. The fluorescence polarization titrations between SK129 and the preformed saturated complex of SK129 F-αS were conducted three times and each point in titrations was the average of three data points. […]
# [1] = Parallel artificial membrane permeability assay (PAMPA); assay type: in vitro ADME; conditions: 4% lecithin in dodecane; for permeability Pe: 1x PBS, 500 μM donor, RT, 18 h, UV absorbance
# Experimental: A parallel artificial membrane permeability assay (PAMPA) Kit (BioAssay Systems, Hayward, CA) was used to measure the membrane permeability of SK-129 according to the manufacturer’s protocol. Briefly, a 4% lecithin solution (LS) was prepared in dodecane and solubilized with constant sonication for 20 min. Then, 5 µL of LS was placed on the donor plate membranes. A 300 μL 1x PBS buffer was applied to the acceptor plate. The solutions of SK-129 and various permeability controls (Highly soluble, medium soluble and low soluble) molecules were added to donor plates (200 μL and 500 μM). The donor plate was placed in the acceptor plate and incubated at RT for 18 h. Then the solutions were removed from the acceptor plate and placed in a clear-bottom 96-well plate (Corning Inc., Corning, NY) and absorbance was recorded at 360 nm for SK-129 and 275 nm for standards. The permeability was calculated using Eq. 2:2 Pe=C×−ln1−ODA/ODEcm/s Where the permeability rate C is 7.72 × 10^−6, ODA is the absorbance of acceptor solution and ODE is absorbance of equilibrium standard.
compound,measurement,setting,value
COC(=O)c1cc(OCC(=O)O)c2cccc(NC(=O)c3cc(OC(C)C)c4cccc(NC(=O)c5cc(OCC(=O)O)c6cccc(NC(=O)c7cc(OC(C)C)c8cccc([N+](=O)[O-])c8n7)c6n5)c4n3)c2n1 [SK-129],Kd,αS,720 ± 60 nM
same,membrane permeation,[1],efficiently permeate cell membranes
same,permeability Pe,[1]; trial 1,4.75 ×10⁻⁶ cm/s
same,permeability Pe,[1]; trial 2,4.45 ×10⁻⁶ cm/s
same,permeability Pe,[1]; trial 3,4.64 ×10⁻⁶ cm/s
same,permeability Pe,[1]; trial 4,4.65 ×10⁻⁶ cm/s
same,permeability Pe,[1]; trial 5,4.64 ×10⁻⁶ cm/s
same,permeability Pe,[1]; trial 6,4.36 ×10⁻⁶ cm/s
same,permeability Pe,[1]; trial 7,4.67 ×10⁻⁶ cm/s
same,permeability Pe,[1]; trial 8,4.79 ×10⁻⁶ cm/s
